Assay results as given in ChEMBL document CHEMBL3872213, “Synthesis and biological activity of furoxan derivatives against Mycobacterium tuberculosis” (Eur J Med Chem, 2016).
In brackets after ≈: the same amount, converted by molar mass.

Assays:
[1] = test system: Mycobacterium tuberculosis; format: functional; settings: H37Rv ATCC 27294, 168 h
[2] = Induction of nitric oxide production assessed as nitrite level at 10^-4M measured after 1 hr in presence 1:50 molar excess of L-cysteine by Griess reagent based spectrophotometer relative to control; format: physicochemical; settings: 100 µM
[3] = test system: Mycobacterium tuberculosis; experiment: microbe, parasite or virus in culture; settings: H37Rv ATCC 27294, 168 h
Description: Antitubercular activity against Mycobacterium tuberculosis H37Rv ATCC 27294 after 7 days by REMA method

[4] = test system: Mycobacterium tuberculosis; format: functional; settings: H37Rv
[5] = Chemical stability in pH 5 PBS buffer assessed as compound degradation after 24 hrs by HPLC-MS/MS method; format: physicochemical; settings: read-out: Drug degradation
in vitro [6] = settings: mouse, J774A.1 cells
Description: Selectivity index, ratio of IC50 for mouse J774A.1 cells to MIC90 for Mycobacterium tuberculosis H37Rv ATCC 27294

[7] = Chemical stability in pH 1 PBS buffer assessed as compound degradation after 1 hr by HPLC-MS/MS method; format: physicochemical; settings: read-out: Drug degradation
[8] = n-octanol-water partition coefficient, log P of the compound by HPLC method; format: physicochemical
[9] = Cytotoxicity against mouse J774A.1 cells measured after 24 hrs by resazurin based fluorescence method; format: toxicity, J774.A1
in vitro [10] = settings: human, MRC5 cells
Description: Selectivity index, ratio of IC50 for human MRC5 cells to MIC90 for Mycobacterium tuberculosis H37Rv ATCC 27294

[11] = Cytotoxicity against human MRC5 cells measured after 24 hrs by resazurin based fluorescence method; format: toxicity, cell-based
[12] = Chemical stability in pH 7.4 PBS buffer assessed as compound degradation after 6 hrs by HPLC-MS/MS method; format: physicochemical; settings: read-out: Drug degradation
[13] = Chemical stability in pH 9 PBS buffer assessed as compound degradation after 1 hr by HPLC-MS/MS method; format: physicochemical; settings: read-out: Drug degradation
[14] = Chemical stability in pH 7.4 PBS buffer assessed as compound degradation after 24 hrs by HPLC-MS/MS method; format: physicochemical; settings: read-out: Drug degradation
[15] = test system: Mycobacterium tuberculosis; format: functional; settings: H37Rv ATCC 27294, 168 h; remark: listed apart in the source
[16] = Chemical stability in pH 5 PBS buffer after 6 hrs by HPLC-MS/MS method; format: physicochemical; settings: pH 5, 6 h
[17] = test system: Mycobacterium tuberculosis; format: functional; settings: H37Rv ATCC 27294, 144 h

Structure (SMILES): CNC(=S)N/N=C(\C)c1ccccn1
- MIC90 [1]: 7.8 µM (≈ 1.62 µg/mL)

Structure (SMILES): Cc1c(Oc2ccccc2C=O)no[n+]1[O-]
- Activity [2]: 0%
- MIC90 [3]: > 62 µM

Structure (SMILES): NC[C@H]1O[C@H](O[C@H]2[C@H](O)[C@@H](O[C@H]3O[C@H](CO)[C@@H](O)[C@H](N)[C@H]3O)[C@H](N)C[C@@H]2N)[C@H](O)[C@@H](O)[C@@H]1O [KANAMYCIN]
- MIC90 [4]: 3.4 µM (≈ 1.65 µg/mL)

Structure (SMILES): O=C(N/N=C/c1ccc(Oc2no[n+]([O-])c2S(=O)(=O)c2ccccc2)cc1)c1ccncc1
- degraded at 24 h [5]: 20%
- Activity [2]: 43.5%
- selectivity ratio (in vitro [6]): 12
- degraded at 1 h [7]: 90%
- logP [8]: 2.1
- MIC90 [3]: 1.03 µM (≈ 0.479 µg/mL)
- IC50 at 24 h [9]: 10.8 µM
- selectivity ratio (in vitro [10]): 20.3
- IC50 at 24 h [11]: 43 µM
- degraded at 6 h [12]: 15%
- degraded at 1 h [13]: 50%
- degraded at 24 h [14]: 20%
- MIC90 [15]: > 62 µM
- Stability [16]: Stable

Structure (SMILES): Cc1c(Oc2ccc(/C=N/NC(=O)c3ccncc3)cc2)no[n+]1[O-]
- Activity [2]: 2.02%
- logP [8]: 1.3
- MIC90 [3]: > 62 µM

Structure (SMILES): CCCCN(CCCC)C(=S)NC(=O)c1ccccc1
- MIC90 [3]: 25 µM (≈ 7.31 µg/mL)

Structure (SMILES): O=Cc1ccccc1Oc1no[n+]([O-])c1-c1ccccc1
- Activity [2]: 25.1%
- MIC90 [3]: > 62 µM

Structure (SMILES): Cc1c(Oc2cccc(/C=N/NC(=O)c3ccncc3)c2)no[n+]1[O-]
- Activity [2]: 0.16%
- logP [8]: 1.3
- MIC90 [3]: > 62 µM

Structure (SMILES): O=Cc1ccccc1Oc1no[n+]([O-])c1S(=O)(=O)c1ccccc1
- Activity [2]: 21.2%
- selectivity ratio (in vitro [6]): 0.4
- MIC90 [3]: 20.2 µM (≈ 7.01 µg/mL)
- IC50 at 24 h [9]: 7.4 µM

Structure (SMILES): CO[C@H]1/C=C/O[C@@]2(C)Oc3c(C)c(O)c4c(O)c(c(/C=N/N5CCN(C)CC5)c(O)c4c3C2=O)NC(=O)/C(C)=C\C=C\[C@H](C)[C@H](O)[C@@H](C)[C@@H](O)[C@@H](C)[C@H](OC(C)=O)[C@@H]1C [RIFAMPIN]
- Activity [2]: 0%
- MIC90 [3]: 0.5 µM (≈ 0.411 µg/mL)

Structure (SMILES): O=C(N/N=C/c1cccc(O)c1)c1ccncc1
- MIC90 [3]: 104 µM (≈ 25 µg/mL)

Structure (SMILES): C/C(=N\NC(=S)Nc1ccccc1)c1ccccn1
- MIC90 [1]: 15.6 µM (≈ 4.22 µg/mL)

Structure (SMILES): O=C(N/N=C/c1cccc(Oc2no[n+]([O-])c2S(=O)(=O)c2ccccc2)c1)c1ccncc1
- Activity [2]: 38.5%
- selectivity ratio (in vitro [6]): 3
- logP [8]: 2.3
- MIC90 [3]: 1.61 µM (≈ 0.749 µg/mL)
- IC50 at 24 h [9]: 4.3 µM
- selectivity ratio (in vitro [10]): 14.1
- IC50 at 24 h [11]: 30.1 µM
- MIC90 [15]: > 62 µM

Structure (SMILES): CCN(CC)C(=S)NC(=O)c1ccco1
- MIC90 [3]: 25 µM (≈ 5.66 µg/mL)

Structure (SMILES): NNC(=O)c1ccncc1 [ISONIAZID]
- Activity [2]: 0%
- MIC90 [3]: 0.11 µM (≈ 0.0151 µg/mL)

Structure (SMILES): NC(=O)c1cnccn1 [PYRAZINAMIDE]
- MIC90 [4]: > 48 µM

Structure (SMILES): O=C(N/N=C/c1ccccc1O)c1ccncc1 [SALINAZID]
- MIC90 [3]: 12.4 µM (≈ 3 µg/mL)

Structure (SMILES): COc1ccc(/C=N/CC/N=C/c2ccc(OC)cc2)cc1
- MIC90 [3]: 25 µM (≈ 7.41 µg/mL)

Structure (SMILES): NC(=O)c1c(CBr)no[n+]1[O-]
- MIC90 [3]: 3 µM (≈ 0.666 µg/mL)

Structure (SMILES): O=C(N/N=C/c1ccccc1Oc1no[n+]([O-])c1S(=O)(=O)c1ccccc1)c1ccncc1
- Activity [2]: 44.2%
- selectivity ratio (in vitro [6]): 1.25
- logP [8]: 2.2
- MIC90 [3]: 8.6 µM (≈ 4 µg/mL)
- IC50 at 24 h [9]: 10.8 µM
- selectivity ratio (in vitro [10]): 3.78
- IC50 at 24 h [11]: 34.4 µM
- MIC90 [15]: > 62 µM

Structure (SMILES): Cc1c(Oc2ccc(C=O)cc2)no[n+]1[O-]
- Activity [2]: 0%
- MIC90 [3]: > 62 µM

Structure (SMILES): O=Cc1ccc(Oc2no[n+]([O-])c2S(=O)(=O)c2ccccc2)cc1
- Activity [2]: 24.4%
- selectivity ratio (in vitro [6]): 0.1
- MIC90 [3]: 26 µM (≈ 9.01 µg/mL)
- IC50 at 24 h [9]: 2.2 µM

Structure (SMILES): C/C(=N\NC(N)=S)c1ccccn1
- MIC90 [1]: 31.3 µM (≈ 6.08 µg/mL)

Structure (SMILES): O=C(N/N=C/c1ccc(O)cc1)c1ccncc1
- MIC90 [4]: 1 µM (≈ 0.241 µg/mL)
- MIC90 [3]: 1.04 µM (≈ 0.251 µg/mL)

Structure (SMILES): O=C(N/N=C/c1cccc(Oc2no[n+]([O-])c2-c2ccccc2)c1)c1ccncc1
- Activity [2]: 6.87%
- logP [8]: 2.9
- MIC90 [3]: > 62 µM

Structure (SMILES): CN(C)C(=S)NC(=O)c1ccccc1
- MIC90 [3]: 25 µM (≈ 5.21 µg/mL)

Structure (SMILES): O=[N+]([O-])O[C@H]1CO[C@H]2[C@@H]1OC[C@H]2O[N+](=O)[O-] [ISOSORBIDE DINITRATE]
- Activity [2]: 7.17 to 7.5 mol/mol

Structure (SMILES): c1csc(-c2nc3ccccc3s2)c1
- MIC90 [3]: 50 µM (≈ 10.9 µg/mL)

Structure (SMILES): O=Cc1ccc(Oc2no[n+]([O-])c2-c2ccccc2)cc1
- Activity [2]: 19.4%
- MIC90 [3]: > 62 µM

Structure (SMILES): N[C@@H]1CONC1=O [CYCLOSERINE]
- MIC90 [4]: 245 µM (≈ 25 µg/mL)

Structure (SMILES): O=C(N/N=C/c1ccccc1Oc1no[n+]([O-])c1-c1ccccc1)c1ccncc1
- Activity [2]: 11.2%
- logP [8]: 2.7
- MIC90 [3]: > 62 µM

Structure (SMILES): O=C(CC(=O)C(F)(F)F)c1ccccc1
- MIC90 [3]: 9.61 µM (≈ 2.08 µg/mL)

Structure (SMILES): CN(C)c1ccc(/C=N/c2ccc(O)cc2)cc1
- MIC90 [3]: 15.6 µM (≈ 3.75 µg/mL)

Structure (SMILES): O=S(=O)(c1ccccc1)c1no[n+]([O-])c1S(=O)(=O)c1ccccc1
- MIC90 [3]: 6.2 µM (≈ 2.27 µg/mL)

Structure (SMILES): O=C(NC(=S)N(c1ccccc1)c1ccccc1)c1ccccc1
- MIC90 [3]: 25 µM (≈ 8.31 µg/mL)

Structure (SMILES): O=C(CC(=O)C(F)(F)F)c1cccs1
- MIC90 [3]: 10.9 µM (≈ 2.42 µg/mL)

Structure (SMILES): O=[N+]([O-])c1ccc(/C=N/c2ccc(O)cc2)cc1
- MIC90 [3]: 15.6 µM (≈ 3.78 µg/mL)

Structure (SMILES): Cc1c(Oc2ccccc2/C=N/NC(=O)c2ccncc2)no[n+]1[O-]
- Activity [2]: 0.35%
- logP [8]: 1.4
- MIC90 [3]: > 62 µM

Structure (SMILES): O=Cc1cccc(Oc2no[n+]([O-])c2-c2ccccc2)c1
- Activity [2]: 23.1%
- MIC90 [3]: > 62 µM

Structure (SMILES): Cc1c(Oc2cccc(C=O)c2)no[n+]1[O-]
- Activity [2]: 0%
- MIC90 [3]: > 62 µM

Structure (SMILES): CC(C)COC(=O)c1cnccn1
- MIC90 [17]: 2 µM (≈ 0.36 µg/mL)

Structure (SMILES): O=S(=O)(c1ccccc1)c1no[n+]([O-])c1-c1ccccc1
- MIC90 [3]: 82 µM (≈ 24.8 µg/mL)

Structure (SMILES): O=C(N/N=C/c1ccc(Oc2no[n+]([O-])c2-c2ccccc2)cc1)c1ccncc1
- Activity [2]: 7.33%
- selectivity ratio (in vitro [6]): 34.8
- logP [8]: 2.9
- MIC90 [3]: 11.8 µM (≈ 4.74 µg/mL)
- IC50 at 24 h [9]: 409 µM
- selectivity ratio (in vitro [10]): 52.7
- IC50 at 24 h [11]: 623 µM
- MIC90 [15]: > 62 µM

Structure (SMILES): O=Cc1cccc(Oc2no[n+]([O-])c2S(=O)(=O)c2ccccc2)c1
- Activity [2]: 27.1%
- selectivity ratio (in vitro [6]): 2
- MIC90 [3]: 20.9 µM (≈ 7.23 µg/mL)
- IC50 at 24 h [9]: 5.6 µM

Structure (SMILES): COc1cc(/C=N/c2ccc(O)cc2)cc(OC)c1OC
- MIC90 [3]: 15.6 µM (≈ 4.48 µg/mL)
